Reference: patent publication US10897891B2, “Compositions and methods for prolonged cell storage” (Board of Regents, The University of Texas System, priority 2015, dated 2021)
Values joined by “and” are separate entries in the source; they are usually repeats but may differ in a detail not shown here. Equal values may be shown once.

Tests used:
[1] = tested on: stored human platelets in thrombocytopenic CD-1 outbred mice; assay: Platelet storage vs platelet function in a mouse model of thrombocytopenia (tail vein bleeding, blotter weight); assay type: in vivo; settings: for Weight of blood after tail vein cut, single animals: 1% PEG-400 in PBS, platelets stored at room temp.
Experimental: Fresh human platelets were obtained from the blood bank. These were pooled, mixed and divided twice to give 4 (new) platelet bags with 65 ml (+/−5 ml) in each. Next sterile PBS/PEG mixtures were made by adding filter sterilized PEG-400 (30% in PBS) serially diluting 1:4. (14 ml PBS+6 ml of PEG400=30% PEG, serially 1:4 diluted with PBS to give 7.5% PEG400, and 1.9% PEG400). Then, 10 ml of PBS or PBS/PEG was added into each platelet bag as follows: 10 ml PBS is 0 control=A; 10 ml of 1.9 is 0.25% peg final in platelets (a low dose tolerated by whole animal see below)=B; 10 ml of 7.5% gives 1% PEG-400 final (the max PEG400 dose tolerated by whole animal see below), =C; 10 ml of 30% gives 4% about 4 times the max dose tolerated in rhesus monkeys. Units were held at room temp 70 cycles/min, 1 inch stroke). The platelet units were confirmed to be negative for bacterial growth using 3 ml the platelet suspensions in Bactec blood culture bottles at 72 hr.
CD-1 outbred mice were obtained from Harlan Laboratories. All animals were pretreated with a 0.5 ml IP dose of 185 ug/mouse of filter sterilized fresh acetylsalicylic acid (aspirin) in PBS buffer. Fresh aspirin was used. Salicylate is the active metabolite responsible for most anti-inflammatory and analgesic effects; however, acetylsalicylate is the active moiety for the antiplatelet-aggregation effect and is rapidly hydrolyzed in water. On the following day all mice were given 3 U (heparin equivalents)/animal Lovenox (Enoxaparin Sodium Injection). After a 2 hr period for Lovenox to take full effect, the animals were given 100 ul platelets by IV tail vein injection, the platelets were allowed to circulate […] and the tail vein cut 1 cm from the tip with a new scapula for each animal. Bleeding was measured by collecting drops of blood for exactly 5 min on pre-weighed blotter paper Whatmen-40. The blotters were then weighed and these weights were compared using unpaired t test statistics. Platelets having an excessive amount of RBC in the units were sedimented under gravity in a 50 ml tube for 30 min and only the top 5 ml was harvested into a second 50 ml tube used for injection.)
Briefly, the animal model experiments were performed as follows. Fresh human platelets were obtained from a blood bank, consisting of 3 ABO ‘O’ units and 2 ABO ‘A’ units. These were pooled, mixed and divided twice to give 4 (new) platelet bags with 75 ml (+/−5 ml) in each. Next sterile PBS/PEG mixtures were made by adding filter sterilized PEG-400 (30% in PBS) serially diluting 1:4. (14 ml PBS+6 ml of PEG=30% PEG, serial ¼ diluted with PBS to give 7.5% PEG, and 1.9% PEG400). 10 ml of PBS or PBS/PEG was then added to each platelet bag as follows. […] Units were held at room temp 140 cycles/min, 0.5 inch stroke). The platelet units were confirmed as negative for bacterial growth using 3 ml in Bactec blood culture bottles at 72 hr.
CD-1 outbred mice were obtained from Harlan Laboratories. All animals were pretreated with a 0.5 ml IP dose of 185 μg/mouse of filter sterilized fresh acetylsalicylic acid in PBS buffer. On the following day all mice were given 3 U (heparin equivalents)/animal Lovenox. (Note: Aspirin was fresh. Salicylate is the active metabolite responsible for most anti-inflammatory and analgesic effects; however, acetylsalicylate is the active moiety for the antiplatelet-aggregation effect and is rapidly hydrolyzed in water. After a 2 hr period for Lovenox effect the animals were given 100 ul platelets by IV tail vein injection, the platelets were allowed to circulate 30 min and the tail vein cut 1 cm from tip with a new scapula for each animal. Bleeding was measured by collecting drops of blood for exactly 5 min on pre-weighed blotter paper Whatmen-40. The blotters were then weighed and these weights were compared using unpaired t test statistics. […]

[2] = tested on: macrophage like cell line U937; assay: Platelet binding to the macrophage like cell line U937 (Experiment E); assay type: cell-based, human; settings: 2% PEG-400, 5° C. overnight
Experimental: U937 is a cell line derived from a patient with Acute Myelo-Monocytic Leukemia. […] In this binding experiment 5 day old platelets from the blood bank are held in a standard storage media referred to as ACD on a flat-bed shaker under standard conditions of rotation. ‘ACD’ contains […], Sodium Citrate, and Dextrose. These platelets were split into two conditions, control and 2%/0 PEG-400, in a 12 well plate format with a final volume of 100 ul per well. All wells were incubated overnight at 5° C. All wells where then stained with fluorescein Diacetate (Sigma product F7378). This agent was protected from light and 1 mg was dissolved in 10 ml acetone and stored at −70° C. FDA was diluted […] in PBS immediately prior to use (Miyamoto el al., 2000.) All platelet wells received 2.5 ug final per well of fluorescein diacetate (FA) contained in 50 ul PBS. After 1 hr at room temp a further 100 ul of PBS was added and the 12 well plates were centrifuged at 3000 g for 20 min at RT. 150 ul excess fluid was carefully removed from all wells and discarded. Platelets were gently suspended. […] Wells were examined and photographed with an inverted fluorescence microscope. […]
Control conditions had standard 75 ul of ACD suspended platelets, plus 25 μl PBS in the control wells. […] Wells were examined with an inverted fluorescence microscope.

Substance: Polyethylene glycol [PEG-400]
- Weight of blood after tail vein cut, mean (X) of combined data ([1]; 1% PEG-400, room temp. storage 11-13 days, N = 9): X = 0.043 grams
- activity of stored platelets ([1]; 1% PEG-400, room temp. storage, day 11-13): active
- clotting vs standard platelet storage condition ([1]; 1% PEG-400, room temp., combined day 11 and day 13 data): significantly more clotting
- Weight of blood after tail vein cut, single animals ([1]; Mar. 11, 2014 group): .06 grams and .04 grams and .05 grams
- Weight of blood after tail vein cut, single animals ([1]; Mar. 13, 2014 group): .05 grams and .03 grams and .02 grams
- Weight of blood after tail vein cut, single animals ([1]; May 23, 2014 group): .04 grams (2×) and .06 grams
- adsorption of cold stored platelets to U937 cells [2]: substantially block adsorption of cold stored platelets to macrophage like cells
- adsorption of cold stored platelets to U937 cells ([2]; listed as PEG): only a few attached strongly fluorescent platelets
